Test results: BigSolDB 2.1

CC1=C(C(=O)O)N2C(=O)[C@@H](NC(=O)[C@H](N)C3=CCC=CC3)[C@H]2SC1
solubility (mole fraction)
Conditions	283.15 K	285.15 K	288.15 K	291.15 K	293.15 K	298.15 K	303.15 K	308.15 K
in ethanol	0.000187	0.000195	0.000217	0.000233	0.000249	0.000299	0.000368	0.000442
in methanol	0.000575	0.00061	0.00065	0.000702	0.000738	0.000845	0.000955	0.00108
in n-butanol	0.000265	0.000288	0.000335	0.000369	0.000405	0.000478	0.000567	0.000657
in n-propanol	0.00019	0.000198	0.000214	0.000238	0.000253	0.000319	0.000381	0.000469
in water	0.00114	–	0.00115	–	0.00116	0.00117	0.00118	0.0012
